Assay results reported in the CheMixHub drug solubility set.

Experiment: xn = mol fraction of the nth substance listed, in the solute-free solvent

Nc1cccc(S(=O)(=O)c2cccc(N)c2)c1 + CCO + O
solubility (g/100 g solution)
Settings	283.15 K	288.15 K	293.15 K	298.15 K	303.15 K	308.15 K	313.15 K	318.15 K	323.15 K	328.15 K
x2 = 0.04165	0.0709	0.0964	0.128	0.168	0.215	0.284	0.356	0.459	0.577	0.72
x2 = 0.08908	0.129	0.173	0.226	0.3	0.383	0.491	0.619	0.788	0.987	1.23
x2 = 0.1436	0.209	0.277	0.357	0.462	0.591	0.744	0.941	1.16	1.45	1.78
x2 = 0.2068	0.318	0.41	0.509	0.646	0.822	1.02	1.25	1.51	1.84	2.24
x2 = 0.2812	0.455	0.561	0.706	0.874	1.07	1.3	1.56	1.89	2.26	2.69
x2 = 0.3698	0.604	0.732	0.907	1.11	1.34	1.64	1.92	2.33	2.7	3.21
x2 = 0.4772	0.76	0.93	1.14	1.34	1.62	1.92	2.28	2.69	3.15	3.7
x2 = 0.6101	0.914	1.09	1.31	1.55	1.88	2.19	2.57	3.03	3.51	4.06
x2 = 0.7788	1.1	1.29	1.52	1.79	2.08	2.43	2.81	3.25	3.75	4.28

S=c1[nH]ncs1 + CCO + O
solubility (g/100 g solution)
Settings	278.15 K	283.15 K	288.15 K	293.15 K	298.15 K	303.15 K	308.15 K	313.15 K	318.15 K	323.15 K
x2 = 0.1	0.653	0.91	1.26	1.71	2.24	2.97	3.91	5.01	6.49	7.94
x2 = 0.2	1.93	2.6	3.27	4.16	5.3	6.67	8.34	10.5	12.8	15.2
x2 = 0.3	3.54	4.46	5.7	7.08	8.6	10.7	12.9	15.5	18.5	21.9
x2 = 0.4	5.21	6.58	8.06	9.53	11.3	13.6	16.1	18.9	22.3	26
x2 = 0.5	6.64	8	9.61	11.3	13.3	15.6	18.1	21.1	24.5	28.1
x2 = 0.6	7.53	8.92	10.7	12.4	14.4	16.5	19.2	22.3	25.4	28.5
x2 = 0.7	8.26	9.5	11.2	13.1	15	17.1	19.5	22.4	25.4	28
x2 = 0.8	8.41	10.1	11.6	13.3	15	17.2	19.5	22.1	25	27.6
x2 = 0.9	8.73	10.2	11.8	13.3	15.1	16.9	19.1	21.6	23.9	26.6
